According to PubChem BioAssay (NCI):
Several values for one entry are separate records, joined by “and”; a condition that tells them apart may be missing. Identical values can stand only once.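 How tested: cells in 96-well plates exposed to compound for 48 hours at five concentrations. At the GI50, growth is halved. TGI: total growth inhibition.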

How the values were obtained:
Test in all cases: growth of human tumour cells (NCI), 48 h
ACHN renal = test system: ACHN renal
NCI/ADR-RES ovarian = test system: NCI/ADR-RES ovarian
SNB-75 CNS = test system: SNB-75 CNS
SN12C renal = test system: SN12C renal
SK-MEL-28 melanoma = test system: SK-MEL-28 melanoma
COLO 205 colon = test system: COLO 205 colon
OVCAR-8 ovarian = test system: OVCAR-8 ovarian
U251 CNS = test system: U251 CNS
PC-3 prostate = test system: PC-3 prostate
NCI-H226 lung = test system: NCI-H226 lung

Compound	GI50 (ACHN renal)	TGI (ACHN renal)	GI50 (NCI/ADR-RES ovarian)	TGI (NCI/ADR-RES ovarian)	GI50 (SNB-75 CNS)	TGI (SNB-75 CNS)	GI50 (SN12C renal)	TGI (SN12C renal)	GI50 (SK-MEL-28 melanoma)	TGI (SK-MEL-28 melanoma)	GI50 (COLO 205 colon)	TGI (COLO 205 colon)	GI50 (OVCAR-8 ovarian)	TGI (OVCAR-8 ovarian)	GI50 (U251 CNS)	TGI (U251 CNS)	GI50 (PC-3 prostate)	TGI (PC-3 prostate)	GI50 (NCI-H226 lung)	TGI (NCI-H226 lung)
O=C(Cc1ccc(/C=C/C(=O)c2ncc[nH]2)cc1)Nc1cc(F)c(F)c(F)c1	3.89 µM	7.23 µM	7.26 µM	> 25 µM	1.98 µM	> 25 µM	4.27 µM	11.1 µM	4.15 µM	8.09 µM	4.08 µM	9.4 µM	5.58 µM	> 25 µM	0.992 µM	3.8 µM	3.8 µM	9.12 µM	4.83 µM	12.8 µM
COc1ccc(-n2cc(-c3cc(OC)c(OC)c(OC)c3)c(C(=O)C(F)(F)F)c2C)cc1	54.6 µM	> 100 µM	25.8 µM	> 100 µM	13.8 µM	> 100 µM	28.6 µM	> 100 µM	> 100 µM	> 100 µM	65.2 µM	> 100 µM	> 100 µM	> 100 µM	63.4 µM	> 100 µM	9.01 µM	> 100 µM	> 100 µM	> 100 µM
CCCCCCCCCCCCOC1C(C(COC2OC(C3COC(C)(C)O3)C3OC(C)(C)OC23)NC(=O)Nc2ccc(C(=O)O)cc2)OC2OC(C)(C)OC21 (stereo not given)	3.56 µM	12.2 µM	10.9 µM	24.8 µM	2.47 µM	10.8 µM	3.45 µM	12.4 µM	3.16 µM	13 µM	2.71 µM	9.05 µM	3.13 µM	12 µM	3.3 µM	11.1 µM	2.6 µM	7.58 µM	3.45 µM	19.2 µM
COc1ccc(C(C)=O)cc1N1C(=O)C2C(C1=O)C1(c3ccccc3)C(=O)C2(c2ccccc2)C(c2ccc(C)cc2)=C1c1ccc(C)cc1 (stereo not given)	> 100 µM	> 100 µM	> 100 µM	> 100 µM	> 100 µM	> 100 µM	> 100 µM	> 100 µM	> 100 µM	> 100 µM	> 100 µM	> 100 µM	> 100 µM	> 100 µM	> 100 µM	> 100 µM	> 100 µM	> 100 µM	> 100 µM	> 100 µM
CC(CCC=O)CCOCc1ccccc1 (stereo not given)	–	> 100 µM	–	> 100 µM	–	> 100 µM	–	> 100 µM	–	> 100 µM	–	> 100 µM	–	> 100 µM	–	> 100 µM	–	> 100 µM	–	> 100 µM
S=C1NC2(CCCCCC2)NN1c1ccccc1	–	> 100 µM	–	> 100 µM	–	> 100 µM	–	> 100 µM	–	> 100 µM	–	0.431 µM	–	> 100 µM	–	> 100 µM	–	> 100 µM	–	> 100 µM
O=C(Nc1nc2ccc(C(F)(F)F)cc2s1)c1cc(Cl)ccc1O	0.894 µM	> 100 µM	0.841 µM	> 100 µM	1.59 µM	7.24 µM	0.353 µM	> 100 µM	0.425 µM	18 µM	1.38 µM	4 µM	1.12 µM	> 100 µM	1.44 µM	26.9 µM	0.318 µM	11.9 µM	1.23 µM	11.4 µM
CCCCCCCCCCCCCC1=NC(C)(C)CN1C(C)C	1.64 µM	2.99 µM	1.67 µM	3.51 µM	1.64 µM	3 µM	1.59 µM	2.98 µM	1.74 µM	3.11 µM	1.41 µM	2.71 µM	1.78 µM	3.42 µM	1.64 µM	3 µM	1.34 µM	3.03 µM	1.72 µM	3.51 µM
COc1cc2nc(-c3ccc(Cl)cc3)cc(OCCCN3CCCCC3)c2cc1OC	2.45 µM	> 100 µM	0.898 µM	> 100 µM	1.98 µM	6.19 µM	0.946 µM	> 100 µM	1.45 µM	3.07 µM	0.582 µM	> 100 µM	1.77 µM	> 100 µM	1.89 µM	> 100 µM	1.74 µM	> 100 µM	1.12 µM	3.73 µM
CCN(CC)CCOc1ccc(-c2nc3cc(Cl)ccc3s2)cc1	1.58 µM	2.94 µM	1.97 µM	3.87 µM	1.21 µM	2.65 µM	2.04 µM	4.79 µM	1.99 µM	3.94 µM	1.45 µM	2.76 µM	1.99 µM	4.02 µM	1.58 µM	2.99 µM	1.74 µM	4.61 µM	2.02 µM	4.43 µM
C=CCCCCC/C=C\[C@H](O)C#CC#C/C=C/CO	> 100 µM	> 100 µM	23.5 µM	57.3 µM	> 100 µM	> 100 µM	15 µM	35.1 µM	> 100 µM	> 100 µM	36.7 µM	> 100 µM	20.2 µM	52 µM	24.5 µM	77.3 µM	18.6 µM	36.1 µM	15.2 µM	31 µM
[Cl][Hg][c]1cc(Br)cc(Br)c1	3.83 µM	14.8 µM	3.07 µM	13.5 µM	1.24 µM	3.43 µM	1.61 µM	3.56 µM	1.57 µM	2.97 µM	2.14 µM	4.97 µM	2.78 µM	7.64 µM	0.441 µM	1.67 µM	2.16 µM	7.2 µM	3.48 µM	8.84 µM
CCN(CC)c1ccc2c(c1)OC(N)=C(C#N)C2c1cc(OC)c2c(c1)OCO2 (stereo not given)	0.101 µM	6.7 µM	< 0.0142 µM	0.0679 µM	0.02 µM	42.5 µM	0.0537 µM	6.09 µM	0.0345 µM	22.7 µM	0.0377 µM	0.424 µM	0.0395 µM	3.53 µM	0.0408 µM	2.38 µM	0.0309 µM	> 100 µM	0.047 µM	0.942 µM
CCN(CC)CCCC(CNc1ccnc2cc(Cl)ccc12)c1ccc(Cl)cc1 (stereo not given)	1.31 µM and 0.705 µM	2.89 µM and 2.07 µM	2.02 µM and 2.13 µM	5.14 µM and 5.87 µM	1.58 µM and 1.4 µM	3.18 µM and 2.85 µM	1.96 µM and 1.92 µM	4.78 µM and 4.3 µM	1.66 µM and 0.537 µM	3.3 µM and 1.09 µM	1.38 µM and 0.212 µM	2.94 µM and 0.466 µM	2.61 µM and 1.57 µM	7.61 µM and 3.99 µM	1.54 µM and 0.95 µM	3.01 µM and 2.48 µM	3.51 µM and 2.45 µM	13.2 µM and 10.2 µM	2.14 µM and 2.55 µM	5.81 µM and 8.83 µM
COc1ccc(/C=C(/C(=O)N2CCN(c3ccccc3)CC2)c2cc(OC)c(OC)c(OC)c2)cc1O	0.457 µM	> 100 µM	0.676 µM	> 100 µM	0.293 µM	> 100 µM	0.564 µM	> 100 µM	0.671 µM	> 100 µM	3.89 µM	22.1 µM	0.419 µM	> 100 µM	0.445 µM	> 100 µM	0.58 µM	> 100 µM	60.9 µM	> 100 µM
N#Cc1c(NN)n(C2OC(CO)C(O)C2O)c2ncnc(N)c12 (stereo not given)	0.0385 µM	–	0.283 µM	4.17 µM	0.388 µM	9.56 µM	0.151 µM	> 47.5 µM	0.0312 µM	0.216 µM	–	0.0424 µM	0.257 µM	7.56 µM	0.0919 µM	> 100 µM	0.0778 µM	–	0.496 µM	2.91 µM
C=COCCCOc1ccccc1	–	> 100 µM	> 100 µM	> 100 µM	> 100 µM	> 100 µM	–	> 100 µM	–	> 100 µM	–	> 100 µM	–	> 100 µM	–	> 100 µM	> 100 µM	> 100 µM	–	> 100 µM
CNC(=O)N(C)N=NCCCl	–	> 100 µM	–	> 100 µM	–	> 100 µM	–	> 100 µM	–	> 100 µM	–	> 100 µM	–	> 100 µM	–	> 100 µM	–	> 100 µM	–	> 100 µM
CCOC(=O)CCCn1c(SC)nc2[nH]cc(-c3ccccc3)c2c1=O	8.09 µM	43.2 µM	18.9 µM	53.1 µM	15.1 µM	40.1 µM	17 µM	49.9 µM	17.6 µM	37.1 µM	24.2 µM	56.1 µM	19 µM	58.9 µM	16.8 µM	58.5 µM	13.8 µM	35.8 µM	14.1 µM	45.1 µM
COc1ccc2c(c1)CCCC(Br)C2=O (stereo not given)	–	20.7 µM	–	> 29.9 µM	–	27.9 µM	–	9.13 µM	–	23.3 µM	–	10.9 µM	–	> 31.9 µM	–	29.6 µM	–	16.7 µM	–	5.92 µM
CC(C)=CCNc1ncnc2c1ncn2C1OC(CO)C(O)C1O (stereo not given)	0.987 µM	> 526 µM	1.5 µM	52.1 µM	2.52 µM	55.9 µM	1.36 µM	> 408 µM	> 346 µM	> 1000 µM	3.96 µM	550 µM	0.496 µM	3.34 µM	36.2 µM	> 1000 µM	0.616 µM	31 µM	2.6 µM	7.1 µM
C=C(c1nc2ccc(Cl)cc2[nH]c1=O)C(O)c1ccc(C(O)C(=O)c2nc3ccc(Cl)cc3[nH]c2=O)cc1 (stereo not given)	–	> 100 µM	–	> 100 µM	–	> 100 µM	–	> 100 µM	–	> 100 µM	–	> 100 µM	–	> 100 µM	–	> 100 µM	–	> 100 µM	–	> 100 µM
O=C(OC(CNc1cc(=O)n(Cc2ccccc2)c(=O)n1Cc1ccccc1)CN1CCCC1)c1ccccc1 (stereo not given)	> 100 µM	> 100 µM	> 100 µM	> 100 µM	16.5 µM	> 100 µM	> 100 µM	> 100 µM	> 100 µM	> 100 µM	> 100 µM	> 100 µM	> 100 µM	> 100 µM	> 100 µM	> 100 µM	> 100 µM	> 100 µM	81.8 µM	> 100 µM
CCN(CC)CCC(CNc1ccnc2cc(Cl)ccc12)c1ccc(OC)cc1 (stereo not given)	5.24 µM and 2.77 µM	19.1 µM and 9.6 µM	8.66 µM and 7.57 µM	47.5 µM and 34.3 µM	3.39 µM and 2.35 µM	17.3 µM and 7.84 µM	12.9 µM and 11.4 µM	34.3 µM and 37.8 µM	1.75 µM and 1.87 µM	3.4 µM and 3.42 µM	1.9 µM and 1.34 µM	4.3 µM and 2.95 µM	5.76 µM and 4.78 µM	27.2 µM and 19.3 µM	4.91 µM and 3.52 µM	17.2 µM and 11.5 µM	19.5 µM and 9.85 µM	76.3 µM and > 100 µM	4.14 µM and 4.92 µM	17.3 µM and 28.4 µM
O=C(CNc1ccc(Cl)cc1)Nc1ccc(-c2nc3ccccc3s2)cc1	5.81 µM	12.6 µM	3.42 µM	11.4 µM	3.39 µM	14.8 µM	3.07 µM	10.5 µM	5.67 µM	11.6 µM	3.49 µM	10.2 µM	6.15 µM	17.8 µM	5.24 µM	10.8 µM	1.85 µM	4.41 µM	2.94 µM	11 µM
NC(=Nc1c([N+](=O)[O-])cnc2ccccc12)N1CCOCC1	–	> 100 µM	–	> 100 µM	–	> 100 µM	–	> 100 µM	–	> 100 µM	–	> 100 µM	–	> 100 µM	–	> 100 µM	–	> 100 µM	–	> 100 µM
COc1cc(N(CCC#N)CCC#N)ccc1/C(N=Nc1ccc([N+](=O)[O-])cc1)=N/NC(=O)c1cc(Br)ccc1O	39.6 µg/mL	131 µg/mL	40.1 µg/mL	116 µg/mL	28.4 µg/mL	83.6 µg/mL	53.4 µg/mL	> 150 µg/mL	80.6 µg/mL	> 150 µg/mL	24 µg/mL	45.9 µg/mL	52.8 µg/mL	> 150 µg/mL	57.3 µg/mL	> 150 µg/mL	37 µg/mL	> 150 µg/mL	5.47 µg/mL	64.3 µg/mL
